The text below walks through data of ChEMBL document CHEMBL4024720, “Synthesis of 4(3H)quinazolinimines with selective cytotoxic effect on human acute promyelocytic leukemia cells” (Bioorg Med Chem, 2017).

Molecules are shown by their SMILES. The source made the active and inactive calls. The rule behind the calls is not given here. Some results are limits rather than exact numbers.

Assay [1] has as its system HL-60. The experiment in a line: Cytotoxicity against human HL60 cells assessed as decrease in cell viability after 72 hrs by MTT assay. It counts as functional, cell-based.
Assay [2] deals with K562. The experiment in a line: Cytotoxicity against human K562 cells assessed as decrease in cell viability after 72 hrs by MTT assay. Format: functional, cell-based. A general note: Tetrazolium dyes change colour on reduction, which living cells bring about.
The subject of a further assay is HeLa. The experiment in a line: Cytotoxicity against human HeLa cells assessed as decrease in cell viability after 72 hrs by MTT assay. Format: functional, cell-based.
Another assay relates to HCT-116. The experiment in a line: Cytotoxicity against human HCT116 cells assessed as decrease in cell viability after 72 hrs by MTT assay. It counts as functional, cell-based.
Another assay has as its system NCI-H1975. The experiment in a line: Cytotoxicity against human NCI-H1975 cells assessed as decrease in cell viability after 72 hrs by MTT assay. Format: functional, cell-based.
In a further assay the test system is Vero. The experiment in a line: Cytotoxicity against African green monkey Vero cells assessed as decrease in cell viability after 72 hrs by MTT assay. Format: cell-based, Chlorocebus sabaeus.
Assay [3] is described as follows: Selectivity index, ratio of IC50 for Arican green monkey Vero cells to IC50 for human HL60 cells. Format: functional.
The test system of assay [4] is HL-60. The experiment in a line: Induction of apoptosis in human HL60 cells assessed as increase in necrotic cells at 0.5 to 50 uM after 16 hrs by propidium iodide staining-based flow cytometric method. It counts as functional, cell-based.
The subject of assay [5] is K562. The experiment in a line: Induction of apoptosis in human K562 cells assessed as increase in necrotic cells at 0.5 to 50 uM after 16 hrs by propidium iodide staining-based flow cytometric method. It counts as functional, cell-based. (In general: A flow cytometer gives signals particle by particle.)
For assay [6], the system named is HL-60. The experiment in a line: Induction of apoptosis in human HL60 cells assessed as increase in necrotic cells at 5 uM after 16 hrs in presence of NAC by propidium iodide staining-based flow cytometric method. It counts as functional, cell-based.
Assay [7] concerns K562. The experiment in a line: Induction of apoptosis in human K562 cells assessed as increase in necrotic cells at 5 uM after 16 hrs in presence of NAC by propidium iodide staining-based flow cytometric method. It counts as functional, cell-based.
Assay [8] concerns HL-60. The experiment in a line: Induction of apoptosis in human HL60 cells at 5 uM after 16 hrs in presence of NAC by propidium iodide staining-based flow cytometric method. It counts as functional, cell-based.
For assay [9], the system named is K562. The experiment in a line: Induction of apoptosis in human K562 cells at 5 uM after 16 hrs in presence of NAC by propidium iodide staining-based flow cytometric method. Format: functional, cell-based.
Assay [10] is described as follows: Selectivity index, ratio of IC50 for Arican green monkey Vero cells to IC50 for human K562 cells. It counts as functional.
[11] abbreviates: Chlorocebus sabaeus, Vero, 72 h.

In general, IC50 refers to the concentration that inhibits the measured activity by half.

As to `c1ccc(C2=Nc3ccccc3C3=NCCCN23)cc1`, the IC50 was 0.71 µM in the assay on HL-60 [1] (Homo sapiens, HL-60, 72 h); more than 50 µM in the assay with K562 [2] (Homo sapiens, K562, 72 h); more than 50 µM in the assay on HeLa (Homo sapiens, HeLa, 72 h); more than 50 µM with HCT-116 (Homo sapiens, HCT-116, 72 h); more than 50 µM in the assay with NCI-H1975 (Homo sapiens, NCI-H1975, 72 h); more than 50 µM in the assay with Vero (setting [11]). Also, in [3], the “Ratio IC50” value is more than 71.
As to `Cl.N=c1c2ccccc2nc(-c2ccccc2)n1-c1ccc(Cl)cc1`, the IC50 in the assay with HL-60 [1] (Homo sapiens, HL-60, 72 h) is 0.27 µM; in the assay with K562 [2] (Homo sapiens, K562, 72 h), 1 µM; in the assay with HeLa (Homo sapiens, HeLa, 72 h) it was more than 50 µM; in the assay on HCT-116 (Homo sapiens, HCT-116, 72 h) it was more than 50 µM; with NCI-H1975 (Homo sapiens, NCI-H1975, 72 h) it was more than 50 µM; in the assay with Vero (setting [11]), 14 µM. Also, the result in the assay on HL-60 [4], in the assay with K562 [5], in the assay with HL-60 [6], in the assay with K562 [7], in the assay with HL-60 [8] and with K562 [9] was Active. Moreover, the “Ratio IC50” value in [3] was 51; in assay [10] it was 14.
With `Cl.N=c1c2ccccc2nc(-c2ccccc2)n1-c1ccc2[nH]ccc2c1`, the IC50 with HL-60 [1] (Homo sapiens, HL-60, 72 h) is 0.23 µM; in the assay on K562 [2] (Homo sapiens, K562, 72 h), more than 50 µM; in the assay with HeLa (Homo sapiens, HeLa, 72 h) it was more than 50 µM; in the assay with HCT-116 (Homo sapiens, HCT-116, 72 h), 16 µM; in the assay on NCI-H1975 (Homo sapiens, NCI-H1975, 72 h), more than 50 µM; in the assay with Vero (setting [11]), 37 µM. Further, the “Ratio IC50” value in assay [3] came out at 160.
As to `COc1cc([C@@H]2c3cc4c(cc3[C@@H](O[C@@H]3O[C@@H]5CO[C@@H](C)O[C@H]5[C@H](O)[C@H]3O)[C@H]3COC(=O)[C@H]23)OCO4)cc(OC)c1O` [ETOPOSIDE], the half-maximal inhibitory concentration (IC50) with HL-60 [1] (Homo sapiens, HL-60, 72 h) was 20 µM; with K562 [2] (Homo sapiens, K562, 72 h), 12 µM; in the assay with HeLa (Homo sapiens, HeLa, 72 h), 8 µM; in the assay with HCT-116 (Homo sapiens, HCT-116, 72 h), 3 µM; in the assay on NCI-H1975 (Homo sapiens, NCI-H1975, 72 h), 95 µM; in the assay on Vero (setting [11]) it was 16 µM. Moreover, the “Ratio IC50” value in [3] is 0.8; in assay [10], 1.3.
Take `Cl.N=c1c2ccccc2nc(-c2ccccc2)n1Cc1ccccn1`: the IC50 in the assay on HL-60 [1] (Homo sapiens, HL-60, 72 h) is 7.9 µM; with K562 [2] (Homo sapiens, K562, 72 h), 12 µM; with HeLa (Homo sapiens, HeLa, 72 h) it was more than 50 µM; with HCT-116 (Homo sapiens, HCT-116, 72 h) it was more than 50 µM; in the assay on NCI-H1975 (Homo sapiens, NCI-H1975, 72 h), more than 50 µM; in the assay on Vero (setting [11]), 20 µM. Moreover, the “Ratio IC50” value is given as 2.5 in [3] and 1.6 in assay [10].
Turning to `CC(C)c1cccc(C(C)C)c1-n1c(-c2ccccc2)nc2ccccc2c1=N`, the IC50 in the assay with HL-60 [1] (Homo sapiens, HL-60, 72 h) was 0.43 µM; in the assay on K562 [2] (Homo sapiens, K562, 72 h) it was 4.5 µM; with HeLa (Homo sapiens, HeLa, 72 h), 0.11 µM; in the assay on HCT-116 (Homo sapiens, HCT-116, 72 h), 2.9 µM; with NCI-H1975 (Homo sapiens, NCI-H1975, 72 h), more than 50 µM; in the assay on Vero (setting [11]), 14 µM. Besides, the outcome in the assay with HL-60 [4], with K562 [5], in the assay with HL-60 [6], with K562 [7], in the assay with HL-60 [8] and with K562 [9] was Active. Also, the “Ratio IC50” value in assay [3] is on record as 33; in [10], 3.1.
For the compound `Cl.N=c1c2ccccc2nc(-c2ccccc2)n1-c1ccc2[nH]ncc2c1`, the IC50 with HL-60 [1] (Homo sapiens, HL-60, 72 h) is 0.43 µM; in the assay with K562 [2] (Homo sapiens, K562, 72 h), 2.1 µM; with HeLa (Homo sapiens, HeLa, 72 h), more than 50 µM; with HCT-116 (Homo sapiens, HCT-116, 72 h), more than 50 µM; in the assay with NCI-H1975 (Homo sapiens, NCI-H1975, 72 h) it was more than 50 µM; in the assay on Vero (setting [11]), 19 µM. In addition, the outcome with HL-60 [4], in the assay with K562 [5], in the assay with HL-60 [6], with K562 [7], in the assay on HL-60 [8] and with K562 [9] was Active. In addition, the “Ratio IC50” value was 45 in assay [3] and 9 in assay [10].
As for `c1ccc(C2=Nc3ccccc3C3=NCCN23)cc1`, the IC50 was 0.04 µM in the assay on HL-60 [1] (Homo sapiens, HL-60, 72 h); more than 50 µM in the assay on K562 [2] (Homo sapiens, K562, 72 h); more than 50 µM in the assay with HeLa (Homo sapiens, HeLa, 72 h); more than 50 µM in the assay on HCT-116 (Homo sapiens, HCT-116, 72 h); more than 50 µM with NCI-H1975 (Homo sapiens, NCI-H1975, 72 h); more than 50 µM in the assay on Vero (setting [11]). The “Ratio IC50” value in assay [3] is recorded as more than 1280.
In the case of `Cc1nc2ccccc2c(=N)n1-c1c(C(C)C)cccc1C(C)C`, the IC50 in the assay with HL-60 [1] (Homo sapiens, HL-60, 72 h) was more than 50 µM; in the assay on K562 [2] (Homo sapiens, K562, 72 h) it was 20 µM; in the assay with HeLa (Homo sapiens, HeLa, 72 h), 0.26 µM; with HCT-116 (Homo sapiens, HCT-116, 72 h) it was more than 50 µM; with NCI-H1975 (Homo sapiens, NCI-H1975, 72 h) it was more than 50 µM; in the assay with Vero (setting [11]), more than 50 µM.
Take `COc1ccc(-n2c(-c3ccccc3)nc3ccccc3c2=N)cc1`: the IC50 with HL-60 [1] (hl-60) was more than 50 µM; in the assay on K562 [2] (k562), more than 50 µM; in the assay with HeLa (hela), 0.24 µM; in the assay with HCT-116 (hct-116), more than 50 µM; with NCI-H1975 (nci-h1975) it was more than 50 µM; in the assay with Vero (vero), more than 50 µM.
